Data as given in patent US9545393B2, “Methods and compositions for treating pain” (The Board of Trustees of the Leland Stanford Junior …, priority 2012, dated 2017).

System: rats subjected to carrageenan insult to the right hind paw
Experiment: Randall-Selitto paw pressure test, carrageenan-induced hyperalgesia in rats
Assay type: in vivo, rat
Settings: naloxone 1 mg/kg s.c., with or without Alda-1; carrageenan rats
Method: Rats. Male Wistar rats (170-190 g) were provided by Charles River Laboratories or Butantan Institute Animal Facility and housed in a temperature-controlled (22±1° C.) and light-controlled (12/12 h light/dark cycle) room. All rats were housed in their surrounding for at least 3 days. Groups of 5-6 rats were used.
Drugs Used. 0.1 ml saline (control), carrageenan (200 μg for rats, 100 μg for mice; Marine Colloids), or prostaglandin E2 (100 ng, Sigma) was administered by intraplantar injection into the right hind paw to induce hyperalgesia. These doses were chosen based on previous studies by our laboratory groups (Aley K O, et al., (2000) Chronic hypersensitivity for inflammatory nociceptor sensitization mediated by the epsilon isozyme of protein kinase C. The Journal of neuroscience: the official journal of the Society for Neuroscience 20: 4680-4685; Konno K, et al., (2008) Crotalphine, a novel potent analgesic peptide from the venom of the South American rattlesnake Crotalus durissus terrificus. Peptides 29: 1293-1304).
Alda-1 dose (2 mg/kg/per injection, dissolved in 50% PEG/50% DMSO) was established in preliminary studies and given in multiple doses due to its estimated short half-life. Alda-1 was injected subcutaneously to the dorsal side of the neck 15 minutes before carrageenan or saline, and again at 30 and 150 minutes after carrageenan, prostaglandin E2 or saline injection. One subset of animals received Alda-1 only 30 and 150 minutes after carrageenan injection. Where indicated, naloxone (1 mg/kg per injection) or vehicle (saline) was given 10 minutes prior to each Alda-1 treatment to the dorsal side of the neck.
Nociception Assessment. The experimental performer was blinded to both genotype and/or treatments. Nociceptive response was assessed by the von Frey method for mice and the Randall-Selitto method for rats immediately before and 180 minutes after carrageenan or prostaglandin E2 injection. Both mice and rats were acclimated to the testing equipment one day before baseline testing.
Randall-Selitto method: Nociceptive threshold was determined using the Randall-Selitto paw pressure test (Ugo-Basile), as previously described (Gutierrez V P, et al., (2008) Crotalphine induces potent antinociception in neuropathic pain by acting at peripheral opioid receptors. European journal of pharmacology 594: 84-92). The baseline values varied between 65-75 g of force. Animals with baseline out of this range (about 10%) were excluded prior to initiating the study in order to achieve uniform testing.

With `C=CCN1CC[C@]23c4c5ccc(O)c4O[C@H]2C(=O)CC[C@@]3(O)[C@H]1C5` [Naloxone, reference compound] the “Effect of naloxone on nociceptive threshold” value was “no effect”.
